Measured values from patent publication US20260232573A1, “DEGARELIX ORGANIC SOLVENT FORMULATIONS” (TOLMAR INTERNATIONAL LIMITED, priority 2023, published 2026).
Non-standard residues stand in square brackets, D forms with d. Residues, ends and D or L forms follow the SMILES beside them. *: point of attachment. dPhe(4-NHCONH2) = NC(=O)Nc1ccc(C[C@@H](N)C(=O)O)cc1; Dihydroorotyl(S) = O=C1C[C@@H](C(=O)*)NC(=O)N1; dPhe(4-Cl) = N[C@H](Cc1ccc(Cl)cc1)C(=O)O; Phe(4-NH2) = Nc1ccc(C[C@H](N)C(=O)O)cc1; d2Nal = N[C@H](Cc1ccc2ccccc2c1)C(=O)O; Lys(iPr) = CC(C)NCCCC[C@H](N)C(=O)O; d3Pal = N[C@H](Cc1cccnc1)C(=O)O

Assay type: physicochemical
Excerpt: Various organic solvents were screened for the maximal solubility of DgA-DS. […] Other solvents tested include-benzyl alcohol, PEG 300, propylene carbonate, triacetin, triethyl citrate, ethyl acetate, and benzyl benzoate.
Bulk solution: To produce the drug/solvent bulk solution comprising the active pharmaceutical ingredient (DgA or DgC), the desired amount of the DgA-DS or DgC-DS was combined with the solvent NMP or DMSO or combination of solvents with or without co-solvent or other additives, in the indicated amounts (see individual experiments below). The API and solvent were combined in a glass vial or jar and blanketed with nitrogen. Jars were mixed using the jar mill, Turbula, or shaker at room temperature until homogeneous. DgA or DgC are very soluble in NMP or DMSO and can load higher concentrations (at least 40% w/w).

Compound | concentration that can be loaded (solubility) | solubility | solubility capacity of degarelix
degarelix citrate [DgC] | at least 40 % w/w |  | 
CC(=O)N[C@H](Cc1ccc2ccccc2c1)C(=O)N[C@H](Cc1ccc(Cl)cc1)C(=O)N[C@H](Cc1cccnc1)C(=O)N[C@@H](CO)C(=O)N[C@@H](Cc1ccc(NC(=O)[C@@H]2CC(=O)NC(=O)N2)cc1)C(=O)N[C@H](Cc1ccc(NC(N)=O)cc1)C(=O)N[C@@H](CC(C)C)C(=O)N[C@@H](CCCCNC(C)C)C(=O)N1CCC[C@H]1C(=O)N[C@H](C)C(N)=O [DgA-DS, degarelix acetate] (Ac-[d2Nal][dPhe(4-Cl)][d3Pal]S[Phe(4-NH2)](Dihydroorotyl(S))[dPhe(4-NHCONH2)]L[Lys(iPr)]P[dA]-NH2) | at least 40 % w/w | either insoluble or has solubility limits much lower than NMP, DMSO or DMA | 35-40 % w/w
